“Also recorded” adds a separate entry of the source.
System: P. omnivora
Assay: in vitro fungal growth inhibition assay
Type: cell-based, Phymatotrichopsis omnivora

O=c1cc(-c2ccc(O)cc2)oc2cc(O)ccc12 [7,4-dihydroxyflavone]
fungal growth inhibition in in vitro assays (at 0.1 mM): inhibited fungal growth | inhibitory activity towards P. omnivora in in vitro assays (no concentration stated): very high inhibitory activity; also recorded: inhibitory to P. omnivora
